Assays:
CTP synthase 1 = biological target: T1, CTP synthase 1 (Homo sapiens, UniProt P17812); assay: Inhibition of C-terminal FLAG-His8-tagged full length human CTPS1 preincubated for 10 mins followed by substrate addition by ADP-Glo assay
T1 sequence (P17812 whole entry): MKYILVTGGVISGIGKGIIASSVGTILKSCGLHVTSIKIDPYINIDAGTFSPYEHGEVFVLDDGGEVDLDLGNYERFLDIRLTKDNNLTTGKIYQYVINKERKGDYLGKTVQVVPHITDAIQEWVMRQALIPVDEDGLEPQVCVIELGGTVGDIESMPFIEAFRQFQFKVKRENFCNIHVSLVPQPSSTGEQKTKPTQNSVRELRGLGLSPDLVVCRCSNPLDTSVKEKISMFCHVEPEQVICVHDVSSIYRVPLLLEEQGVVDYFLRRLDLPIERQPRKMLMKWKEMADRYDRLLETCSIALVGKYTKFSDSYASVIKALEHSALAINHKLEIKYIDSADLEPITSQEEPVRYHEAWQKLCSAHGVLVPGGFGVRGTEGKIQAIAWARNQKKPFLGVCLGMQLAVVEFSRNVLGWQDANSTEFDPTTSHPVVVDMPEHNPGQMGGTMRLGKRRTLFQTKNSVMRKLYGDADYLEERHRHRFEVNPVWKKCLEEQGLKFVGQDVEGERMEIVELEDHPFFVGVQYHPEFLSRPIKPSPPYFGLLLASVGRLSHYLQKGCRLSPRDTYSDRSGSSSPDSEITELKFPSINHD

Homo sapiens = species: Homo sapiens; assay: Selectivity ratio of IC50 for human CTPS2 to IC50 for human CTPS1 by RapidFire/MS analysis

SMILES | IC50 (CTP synthase 1) [nM] | Ratio IC50 (Homo sapiens)
CCC(C(=O)Nc1ccc(-c2cncc(C(F)(F)F)n2)cn1)c1ccnc(NS(=O)(=O)C2CC2)n1 (stereo unspecified) | ≤ 100 | 30
CCOc1cncc(-c2ccc(NC(=O)C(C)(CC)c3ccnc(NS(=O)(=O)C4CC4)n3)nc2)n1 (stereo unspecified) | ≤ 100 | > 60
CCOc1cncc(-c2ccc(NC(=O)C(CCOC)c3ccnc(NS(=O)(=O)C4CC4)n3)cc2)n1 (stereo unspecified) | ≤ 100 | 30
CCOc1cncc(-c2ccc(NC(=O)C(CC)c3ccnc(NS(=O)(=O)C4CC4)n3)cc2)n1 (stereo unspecified) | ≤ 100 | 30
CCOc1cncc(-c2ccc(NC(=O)C(CC)c3cncc(NS(=O)(=O)C4CC4)n3)cc2)n1 (stereo unspecified) | ≤ 100 | > 60
CCOc1cncc(-c2ccc(NC(=O)C3(c4ccnc(NS(=O)(=O)C5CC5)n4)CC3)cc2)n1 | ≤ 100 | > 60
CCOc1cncc(-c2cnc(NC(=O)C(CC)c3ccnc(NS(=O)(=O)C4CC4)n3)c(F)c2)n1 (stereo unspecified) | ≤ 100 | 30
CCOc1cncc(-c2ccc(NC(=O)C3(c4ccnc(NS(=O)(=O)C5CC5)n4)CCN(S(C)(=O)=O)CC3)nc2)n1 | ≤ 100 | > 60
CCOc1cncc(-c2ccc(NC(=O)C3(c4ccnc(NS(=O)(=O)C5CC5)n4)CCOCC3)c(F)c2)n1 | ≤ 100 | > 60
CCOc1cncc(-c2ccc(NC(=O)C(CC)c3ccnc(NS(=O)(=O)C4CC4)n3)c(F)c2)n1 (stereo unspecified) | ≤ 100 | 2
CCOc1cncc(-c2cnc(NC(=O)C(CC)c3ccnc(NS(=O)(=O)C4CC4)n3)c(C)c2)n1 (stereo unspecified) | ≤ 100 | 2
CCC(C(=O)Nc1ccc(-c2cncc(OCC(F)(F)F)n2)cc1)c1ccnc(NS(=O)(=O)C2CC2)n1 (stereo unspecified) | ≤ 100 | > 60
CC(C)Oc1cncc(-c2ccc(NC(=O)Cc3ccnc(NS(=O)(=O)C4CC4)n3)cc2)n1 | ≤ 100 | 30
CCOc1cncc(-c2ccc(NC(=O)C3(c4ccnc(NS(=O)(=O)C5CC5)n4)CCCC3)nc2)n1 | ≤ 100 | > 60
CCOc1cncc(-c2ccc(NC(=O)Cc3ccnc(NS(=O)(=O)C4CC4)n3)cc2)n1 | ≤ 100 | 30
CCOc1cncc(-c2ccc(NC(=O)C(CC)c3ccnc(NS(=O)(=O)C4CC4)n3)c(C)c2)n1 (stereo unspecified) | ≤ 100 | 2
CCOc1cncc(-c2ccc(NC(=O)C3(c4ccnc(NS(=O)(=O)C5CC5)n4)CCCC3)cc2)n1 | ≤ 100 | > 60
CC(C)Oc1cncc(-c2ccc(NC(=O)C(C)(C)c3ccnc(NS(=O)(=O)C4CC4)n3)nc2)n1 | ≤ 100 | > 60
CCOc1cncc(-c2ccc(NC(=O)C3(c4ccnc(NS(=O)(=O)C5CC5)n4)CCC(F)(F)CC3)nc2)n1 | ≤ 100 | > 60
CCOc1cncc(-c2ccc(NC(=O)C(CCOC)c3ccnc(NS(=O)(=O)C4CC4)n3)nc2)n1 (stereo unspecified) | ≤ 100 | > 60
CCOc1cncc(-c2ccc(NC(=O)C(C)(C)c3cncc(NS(=O)(=O)C4CC4)n3)nc2)n1 | ≤ 100 | > 60
CCOc1cncc(-c2ccc(NC(=O)C(C)(CCOC)c3cncc(NS(=O)(=O)C4CC4)n3)nc2)n1 (stereo unspecified) | ≤ 100 | > 60
CCOc1cncc(-c2ccc(C(=O)NC(CC)c3ccnc(NS(=O)(=O)C4CC4)n3)c(F)c2)n1 (stereo unspecified) | ≤ 100 | > 60
CCOc1cncc(-c2ccc(NC(=O)C3(c4ccnc(NS(=O)(=O)C5CC5)n4)CCOCC3)nc2)n1 | ≤ 100 | > 60
CCOc1cncc(-c2ccc(NC(=O)C3(c4cncc(NS(=O)(=O)C5CC5)n4)CCOCC3)nc2)n1 | ≤ 100 | > 60
CCOc1cncc(-c2ccc(NC(=O)C3(c4ccnc(NS(=O)(=O)C5CC5)n4)CCC4(CC3)OCCO4)nc2)n1 | ≤ 100 | > 60
CCC(C(=O)Nc1ccc(-c2cncc(OCC(F)(F)F)n2)cc1F)c1ccnc(NS(=O)(=O)C2CC2)n1 (stereo unspecified) | ≤ 100 | > 60
CCOc1cncc(-c2ccc(NC(=O)C(CC)c3cncc(NS(=O)(=O)C4CC4)n3)nc2)n1 (stereo unspecified) | ≤ 100 | > 60

SMILES | IC50 (CTP synthase 1) [nM] | Ratio IC50 (Homo sapiens)
CCOc1cncc(-c2ccc(NC(=O)C(CC)c3cccc(NS(=O)(=O)C4CC4)n3)nc2)n1 (stereo unspecified) | ≤ 100 | 30
CCOc1cncc(-c2ccc(NC(=O)C3(c4ccnc(NS(=O)(=O)CC#N)n4)CCOCC3)nc2)n1 | ≤ 100 | > 60
CC(C)(NC(=O)c1ccc(-c2cncc(C(F)(F)F)n2)cc1)c1cncc(NS(=O)(=O)C2CC2)n1 |  | 2
CCOc1cncc(-c2ccc(NC(=O)C(F)(CC)c3ccnc(NS(C)(=O)=O)n3)nc2)n1 (stereo unspecified) | ≤ 100 | > 60
CCOc1cncc(-c2ccc(NC(=O)C(C)(OC)c3cncc(NS(=O)(=O)C4CC4)n3)nc2)n1 (stereo in doubt; form 2) |  | 30
CCOc1cncc(-c2ccc(NC(=O)C(C)(C)c3ccnc(NS(=O)(=O)CC)n3)cc2)n1 |  | 30
CCC(C(=O)Nc1ccc(-c2cncc(OC(C)C)n2)cn1)c1ccnc(NS(=O)(=O)C2CC2)n1 (stereo unspecified) | ≤ 100 | > 60
CCOc1cncc(-c2ccc(NC(=O)C3(c4ccnc(NS(=O)(=O)C5CC5)n4)CCC(=O)CC3)nc2)n1 | ≤ 100 | > 60
CCOc1cncc(-c2ccc(NC(=O)C(C)(C)c3ccnc(NS(=O)(=O)C4CC4)n3)nc2)n1 | ≤ 100 | > 60
CC(C)Oc1cncc(-c2ccc(NC(=O)Cc3ccnc(NS(=O)(=O)C4CC4)n3)c(F)c2)n1 | ≤ 100 | 30
CCC(C(=O)Nc1ccc(-c2cncc(OC)n2)cn1)c1ccnc(NS(=O)(=O)C2CC2)n1 (stereo unspecified) | ≤ 100 | > 60
CCOc1cncc(-c2ccc(NC(=O)C(C)(C)c3ccnc(NS(=O)(=O)C4CC4)n3)c(F)c2)n1 | ≤ 100 | 2
CC(C)Oc1cncc(-c2ccc(NC(=O)C(C)(C)c3ccnc(NS(=O)(=O)C4CC4)n3)c(F)c2)n1 | ≤ 100 | 2
CC(C)Oc1cncc(-c2ccc(C(=O)NC(C)(C)c3cncc(NS(=O)(=O)C4CC4)n3)c(F)c2)n1 |  | 2
CCOc1cncc(-c2ccc(NC(=O)C(OC)c3ccnc(NS(=O)(=O)C4CC4)n3)cc2)n1 (stereo unspecified) | ≤ 100 | 2
CCOc1cncc(-c2ccc(NC(=O)C(CC)c3ccnc(NS(=O)(=O)C4CC4)n3)nc2)n1 (stereo unspecified) | ≤ 100 | > 60
CCOc1cncc(-c2ccc(NC(=O)C(F)(CC)c3ccnc(NS(=O)(=O)C4CC4)n3)nc2)n1 (stereo in doubt; form 1) |  | 30
CCOc1cncc(-c2ccc(NC(=O)C(C)(C)c3ccnc(NS(=O)(=O)C4CC4)n3)cc2)n1 | ≤ 100 | 2
CCC(C(=O)Nc1ccc(-c2cncc(C(F)(F)F)n2)cc1)c1ccnc(NS(=O)(=O)C2CC2)n1 (stereo unspecified) |  | 2
CCC(C(=O)Nc1ccc(-c2cncc(OC)n2)cc1F)c1ccnc(NS(=O)(=O)C2CC2)n1 (stereo unspecified) | ≤ 100 | 2
CC(C)(C(=O)Nc1ccc(-c2cncc(C3CC3)n2)cn1)c1ccnc(NS(=O)(=O)C2CC2)n1 |  | 30
CCOc1cncc(-c2ccc(C(=O)NCc3ccnc(NS(=O)(=O)C4CC4)n3)cc2)n1 | ≤ 100 | > 60
CCOc1cncc(-c2ccc(NC(=O)C(CCOC)c3ccnc(NS(=O)(=O)C4CC4)n3)c(F)c2)n1 (stereo unspecified) | ≤ 100 | > 60
O=C(Cc1ccnc(NS(=O)(=O)C2CC2)n1)Nc1ccc(-c2cccnc2)cc1 |  | 30
CCOc1cncc(-c2ccc(NC(=O)C(C)(C)c3ccnc(NS(=O)(=O)C4CC4)n3)c(C#N)c2)n1 | ≤ 100 | 2
CCOc1cncc(-c2ccc(NC(=O)C(C)(C)c3cncc(NS(=O)(=O)C4CC4)n3)cc2)n1 | ≤ 100 | > 60
CC(C)(C(=O)Nc1ccc(-c2cncc(C3CC3)n2)cc1F)c1ccnc(NS(=O)(=O)C2CC2)n1 |  | 2

From ChEMBL document CHEMBL5393444, “Sulfonamide derivatives as ctps1 inhibitors” (2022)
